This data set in a line: gradient 5% acetonitrile 3 min, to 50% in 2 min, to 85% in 15 min, held 3 min, 100 µL/min. The conditions noted are these: column: Zorbax Extend-C18 2.1 x 50 mm; eluents: water / acetonitrile, 0.1% formic acid. In outline: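 Retention times come from adduct peaks that were picked computationally and then checked by hand. The standards, pure and pooled in mixtures of ~100 molecules, were run on a Zorbax Extend-C18 column (2.1 × 50 mm, 1.8 μm) at 100 μL/min with water and acetonitrile, each with 0.1% formic acid. Detection was by quadrupole time-of-flight mass spectrometry in positive and negative ionization mode, with a dead volume of 40 μL and a dwell volume of 900 μL.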
The compound `N#Cc1ccc(C(=O)N2CCCC2c2nc(-c3ccccc3)no2)cc1` (stereo not given) registered an RP-LC retention time of 925 s. The result for `CC(C)NC(=O)c1cc2nc(N(C)C)n(-c3ccccc3)c2s1` reads 885 s; that for `c1ccc2[nH]c(-c3ccncc3)nc2c1`, 624 s; that for `Nc1cccc(N2CCn3c(nc4ccccc43)C2)c1`, 525 s. Next, `CCOC(=O)c1nc(N2CCN(C(=O)c3ccco3)CC2)c2ccccc2n1`: 665 s. Next, `O=C(Cn1ccc2c(SCc3ccccc3)nccc21)NCCCN1CCCC1`: 587 s. The compound `O=C(Cc1ccccc1)N1CCCC1c1nc(-c2ccccc2)no1` (stereo not given) gave an RP-LC retention time of 949 s. Next, `Cc1cc(CN2CC(F)(F)C[C@H]2c2nnc(-c3ccccc3)o2)n(C)n1`: 806 s; `O=C(NC1CCCCCCC1)C1CCN(S(=O)(=O)c2cc(C(=O)N3CCCC3)cs2)CC1`: 902 s.

`CC(C)c1nc2c(c(=O)n1CC(=O)NCc1ccc(F)cc1)CCN(Cc1ccccc1)C2` showed an RP-LC retention time of 683 s. Next, `O=C(CN1CCc2ccccc2C1C(=O)N1CCCC1)Nc1cccc(Br)c1` (stereo not given): 921 s; `CNCCCNCc1ccc(-c2ccc(F)c(Cl)c2)o1`: 580 s; `CCN1C(=O)c2ccccc2Oc2ccc(C(=O)NCc3ccc4c(c3)OCO4)cc21`: 1170 s. For the compound `CCn1nc(C)c(-c2cc(C(=O)N3CCCCCCNC(=O)[C@@H]4CCCC[C@@H]43)no2)c1C`, the RP-LC retention time is 834 s. In turn, `CN1CCc2cc(C(CNS(=O)(=O)c3ccccc3F)N3CCCC3)ccc21` (stereo not given) yielded an RP-LC retention time of 573 s. `Cc1ccsc1C(=O)N1CCC(c2nc(CCOCC3CC3)no2)C1` (stereo not given) returned an RP-LC retention time of 812 s.

As for `O=C1C2N=NN(Cc3nc(-c4ccccc4Cl)no3)C2C(=O)N1c1ccc2c(c1)CCC2` (stereo not given), the RP-LC retention time came out at 1070 s.

With `Fc1ccc(CNc2cc(-n3cccn3)ncn2)cc1`, the RP-LC retention time turned out to be 830 s. The result for `COc1ccc(N2CCN(CCNc3cc(C(=O)O)c4ccccc4n3)CC2)cc1` reads 919 s; that for `CCCn1c(CCNC(=O)c2ccc(F)c(F)c2)nc2cccnc21`, 683 s. The compound `OCCNCCNCc1ccc(-c2cccc(Cl)c2)o1` returned an RP-LC retention time of 568 s. The result for `Cc1cc(C)c2c(-n3cccc3)nn(Cc3ccc(C(=O)NCc4ccco4)cc3)c2n1` reads 1060 s; that for `CCOC(=O)c1[nH]c(C)c(C(=O)C(C)N(C(=O)c2cccc(OC)c2)C2CC2)c1C` (stereo not given), 879 s; that for `O=C(c1cccs1)N1CCCC1c1nc(-c2ccccc2)n[nH]1` (stereo not given), 704 s. In the case of `CCC(=O)N1CCC2(C1)C(=O)N(C)c1ccc(OC)cc12` (stereo not given), the RP-LC retention time was 652 s. Next, `O=C(CCc1nnc2c3cc(-c4ccc(F)cc4)nn3ccn12)NCc1ccc(Cl)cc1`: 822 s; `CC(C)(C)c1csc(-c2csc(S(=O)(=O)NCc3ccc(Cl)cc3)c2)n1`: 1340 s; `COc1cccc2c(SCc3ccccn3)nccc12`: 683 s. Compound `Cc1oc(-c2[nH]ncc2C(=O)N2CCCC2)cc1S(=O)(=O)NCCC(C)C` displayed an RP-LC retention time of 736 s. Next, `COCCNc1c(-c2ccc(OC)cc2)nc2sc(C(=O)N(C)C)c(C)n12`: 698 s. As to `Cc1ccc(CNC(=O)C2(C)CCN(S(=O)(=O)c3ccc(Cl)cc3)CC2)cc1`, the RP-LC retention time was determined as 615 s. Next, `CCc1nnc(-c2ccc(=O)n(CC(=O)NCc3ccc(F)c(Cl)c3)c2)o1`: 713 s; `CCCN(CCC)C(=O)c1cc(NC(=O)C(C)C)cnc1N1CCNCC1`: 606 s. Compound `CC(=O)NCC(=O)NCc1nn(CC(C)C)c2ccccc12` had an RP-LC retention time of 670 s.

In turn, `CN1C(=O)CSc2cnn(CC(=O)N3CCN(c4ccc(F)cc4)CC3)c(=O)c21` displayed an RP-LC retention time of 706 s. Compound `CCn1cc(S(=O)(=O)N2C[C@@H](C(=O)NC)[C@H](c3n[nH]c(C)n3)C2)cn1` returned an RP-LC retention time of 577 s.

`O=C(CSc1ncnc2c1cnn2-c1ccc(Cl)cc1)NCc1ccco1` showed an RP-LC retention time of 954 s. Consider `O=c1n(Cc2ccc(F)cc2)nc2c(S(=O)(=O)N3CCN(c4ccc(F)cc4)CC3)cccn12`, for which the RP-LC retention time is 991 s. In the case of `CC(C)c1cc(N2CCN(c3ccccn3)CC2)n2ncc(-c3ccccc3)c2n1`, the RP-LC retention time was 670 s.

Turning to `O=C(Cn1cccc1-c1nnc(-c2ccccc2)o1)N1CCN(C2CCCCC2)CC1`, the RP-LC retention time is 687 s. With `COc1ccc(C)cc1NC(=O)Cn1nc2nc(N3CCCC(C)C3)ccn2c1=O` (stereo not given), the RP-LC retention time was found to be 841 s. The result for `Cc1ccc2c(c1)N(Cc1nc(-c3ccc(Cl)cc3)no1)C(=O)CO2` reads 1130 s; that for `CCn1c(=O)n(CC)c2cc(S(=O)(=O)c3ccccc3)c(NC(=O)C3CC3)cc21`, 816 s; that for `CCN(CC)S(=O)(=O)c1ccc2c(c1)N(CC(=O)NCCc1ccco1)C(=O)C1CCCCN21` (stereo not given), 693 s.

With `CCOc1ccccc1NC(=O)N1CCc2cn(C)c3cccc(c23)C1`, the RP-LC retention time worked out at 834 s.

In turn, `Cc1cccc(-c2cc3n(n2)CCCN(C(=O)COc2ccc(Cl)cc2)C3)c1` gave an RP-LC retention time of 1010 s. In turn, `O=C(Cn1c(=O)c2cc(-c3ccco3)nn2c2ncccc21)Nc1ccc(F)cc1` gave an RP-LC retention time of 814 s. The result for `CC(C)S(=O)(=O)c1ccc(CC(=O)N2CCCC(c3nnc(C(F)(F)F)o3)C2)cc1` (stereo not given) reads 750 s; that for `COc1ccc(-c2noc(C3CCCN3C(=O)c3ccccc3)n2)cc1` (stereo not given), 907 s; that for `CCOC(=O)C1CCN(C(=O)c2cn3c(n2)CN(CC)CC3)CC1`, 575 s.

In turn, `O=C1NC2(CCN(C(=O)NCc3ccc(F)cc3)CC2)Nc2cc(Cl)ccc21` returned an RP-LC retention time of 740 s. Next, `COc1cc(C(=O)Nc2cnn(C)c(=O)c2N2CCCCC2)cc(OC)c1OC`: 878 s. For the compound `Cn1ncc2c3ccccc3n(CCCC(=O)N3CCN(Cc4ccccc4)CC3)c2c1=O`, the RP-LC retention time turned out to be 646 s. The result for `CN1C(=O)c2cc(C(=O)NCc3ccccc3)nn2CC1(C)C(=O)NC1CCCCC1` (stereo not given) reads 761 s; that for `O=S(=O)(Nc1ccc(Cn2cncn2)cc1)c1ccc(F)c(Cl)c1`, 758 s.

With `CCCCNC(=O)C1CCCN(c2nnc3ccc(Cl)cn23)C1` (stereo not given), the RP-LC retention time was 704 s. Next, `COc1ccc(NC(=O)c2c(C)oc3nc(C)nc(N4CCOCC4)c23)cc1Cl`: 788 s; `COC(=O)c1cccc(NC(=O)Nc2c(-c3cccnc3)[nH]c3ccccc23)c1`: 667 s. Next, `COc1ccc(C2(CNS(=O)(=O)c3ccc4c(c3)OCCO4)CCOCC2)cc1`: 785 s.

`CCOC(=O)c1noc2ncnc(Nc3ccc(C)cc3)c12`: the RP-LC retention time is 1010 s. The result for `CCC(C)N(CCNC(=O)Cc1noc2ccccc12)Cc1ccco1` (stereo not given) reads 664 s; that for `O=C(Nc1ccc2c(c1)OCCO2)C1CCN(C(=O)c2ccccc2F)CC1`, 734 s. `CCCN1C(=O)CCc2cc(NC(=O)c3cc4ccccc4[nH]3)ccc21` yielded an RP-LC retention time of 882 s.

`O=C(c1ccco1)N1CCC(n2c(-c3ccsc3)nc3cccnc32)C1` (stereo not given) returned an RP-LC retention time of 644 s.

As to `COc1cc(-c2nc(Cn3cnc4ccccc4c3=O)no2)cc(OC)c1OC`, the RP-LC retention time was found to be 795 s. Next, `Cc1cc(-c2nnc(-c3ccco3)o2)c(C)n1CC(=O)NCc1ccccc1Cl`: 863 s; `COC(=O)c1c(C)[nH]c(C(=O)N2CCC(CC(=O)NCCc3ccco3)CC2)c1C`: 683 s.

Take `Cc1ccc(N2CC(c3nc(-c4ccc5c(c4)ncn5CCC(=O)N4CCCC4)no3)CC2=O)cc1C` (stereo not given): the RP-LC retention time worked out at 738 s.

The compound `COc1ccccc1NC(=O)N1CCc2nc(CNC(=O)C3CCC3)n(C)c2C1` had an RP-LC retention time of 604 s.

In the case of `CCCCOCc1cc(CN2CCN(C)CC2)c(O)c2ncccc12`, the RP-LC retention time is 592 s. The result for `Cc1ccc(-c2nnc(-c3cccc(S(=O)(=O)NC(C)C)c3)o2)cc1` reads 984 s; that for `NC(=O)C1CCN(C(=O)c2cn(-c3ccc(Cl)cc3)nn2)CC1`, 660 s. As to `O=C(c1ccc2nsnc2c1)N(Cc1ccsc1)C1CC1`, the RP-LC retention time stood at 861 s. `CC(=O)Nc1nc2ccc(CC(=O)N3CCN(c4ccccn4)CC3)cc2s1` gave an RP-LC retention time of 570 s. The result for `O=C(Cn1cccc(-c2nc(-c3ccc(F)cc3)no2)c1=O)NC1CCCC1` reads 797 s; that for `CCOc1cccc(CN2C[C@@H]3C(=O)N(CCN4CCc5ccccc5C4)C(=O)[C@@H]3C2)c1`, 622 s; that for `COc1ccc(C2(C)OC(c3cc(C)nc4ccccc34)=NN2C(C)=O)c(OC)c1` (stereo not given), 818 s. The result for `c1ccc(OCCSc2nc3ccccc3[nH]2)cc1` reads 625 s; that for `CCC(=O)Nc1ccc(-n2cnc(C(=O)NCc3ccc(F)cc3Cl)c2)nc1`, 762 s; that for `O=C(Nc1cccc(-c2nnc3n2CCCC3)c1)C1CCCC1`, 673 s.

(Values after the METLIN SMRT retention time set (Domingo-Almenara et al. 2019).)
